The values below come from patent US8378104B2 (OSI Pharmaceuticals, LLC, priority 2010, dated 2013).

Structures can show the parent of a compound that is named as a salt.

In one test the target is T1, TAK1-TAB1 fusion protein (Homo sapiens, UniProt O43318).
T1 construct: purchased Carna
T1 sequence (O43318 with tags, fused parts or gaps limits assumed): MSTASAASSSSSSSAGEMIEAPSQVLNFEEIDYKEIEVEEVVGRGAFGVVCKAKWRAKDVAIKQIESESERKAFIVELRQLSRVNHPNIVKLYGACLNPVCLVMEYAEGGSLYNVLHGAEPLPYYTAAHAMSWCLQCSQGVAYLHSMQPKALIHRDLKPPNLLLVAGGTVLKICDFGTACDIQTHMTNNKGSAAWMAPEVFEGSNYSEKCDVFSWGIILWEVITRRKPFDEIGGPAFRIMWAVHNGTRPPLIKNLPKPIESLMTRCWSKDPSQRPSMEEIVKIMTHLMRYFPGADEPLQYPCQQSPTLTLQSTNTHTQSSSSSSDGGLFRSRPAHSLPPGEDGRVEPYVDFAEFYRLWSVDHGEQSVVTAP
Put plainly: TAK1 biochemical assay (AlphaScreen, GST-MAP2K7 substrate). As to conditions: TAK1-TAB1 fusion protein, GST-MAP2K7 substrate; read-out: mean TAK1 IC50 (Col. A). Background: In Alpha technology, singlet oxygen from a donor bead excites a nearby acceptor bead.

For the next test, the system named is pJNK in HCT-116 cells. As to the kind of experiment: Phospho-JNK (Thr183/Tyr185) Meso Scale ELISA assay, TNFα-stimulated HCT-116 cells. The class given is cell-based. As to conditions: Homo sapiens, read-out: mean HCT-116 pJNK ELISA IC50 (Col. B). How it is done: Detailed below are ELISA assays for pJNK and p38, and a TAK1 biochemical assay. […] In Table 1, Col.
Phospho-JNK (Thr183/Tyr185) Meso Scale ELISA Assay
• 1. Plate HCT-116 cells at 25,000 per well in 100 uL in 96 well clear dishes in normal growth medium. Day 2: • 1. Aspirate medium and replace with 90 μl reduced serum growth medium (1% FCS), incubate for 2 hours at 37° C. • 2. Make drugs at 10× in reduced serum medium and add 10 uL per well. • 3. Incubate at 37° C. for 4 hrs. • 4. Bring capture plates to room temperature. • 5. Block with 150 μl Blocking Solution (provided with kit) (600 mg Blocker A into 20 mL 1× Wash Buffer per plate) at room temperature with shaking. • 6. Wash plates 4× with 200 μl 1× wash buffer (10× provided with kit) before transferring lysates. • 7. Dilute TNFα to […] in reduced serum medium (this makes a 10× working stock). • 8. Add 10 μl TNFα to all wells except negative control wells, final concentration is 10 ng/mL. • 9. Incubate at 37° C. for 10 minutes. • 10. Remove medium by flicking into sink • 11. Wash cells with 100 uL ice cold PBS. • 12. Remove PBS by flicking into sink and patting on paper towels. • 13. Lyse cells in 50 μl ice cold 1× Complete Lysis Buffer plus Phosphatase and Protease inhibitors (all provided with kit) (10 mL Tris Lysis Buffer+200 μl Protease inhibitor solution+100 μl Phosphatase inhibitor I+100 μl Phosphatase inhibitor II). • 14. Incubate with shaking at 4° C. for 30 minutes. • 15. Transfer 45 μl to capture plate, cover with adhesive cover, and incubate at 4° C. over night with shaking. • Day 3: • 1. Wash plates 4× with 200 μl 1× wash buffer (10× provided with kit). • 2. […] Incubate at room temperature with shaking for 1 hour. • 4. Wash 4× with 200 μl 1× Wash Buffer. • 5. […] Read on Sector Imager. Phospho-p38 Meso Scale ELISA Assay Day 1: • 1. Plate HCT-116 cells at 25,000 per well in 100 uL in 96 well clear dishes in normal growth medium. zday 2: • 1. Aspirate medium and replace with 90 μl reduced serum growth medium (1% FCS), incubate for 2 hours at 37° C. • 2. Make drugs at 10× in reduced serum medium and add 10 uL per well. • 3. Incubate at 37° C. for 4 hrs. • 4. Bring capture plates to room temperature. • 5. Block with 150 μl Blocking Solution (provided with kit) (600 mg Blocker A into 20 mL 1× Wash Buffer per plate) at room temperature with shaking. • 6. Wash plates 4× with 200 μl 1× wash buffer (10× provided with kit) before transferring lysates. • 7. Dilute TNFα to […] in reduced serum medium (this makes a 10× working stock). • 8. Add 10 μl TNFα to all wells except negative control wells, final concentration is 10 ng/mL. • 9. Incubate at 37° C. for 10 minutes. • 10. Remove medium by flicking into sink • 11. Wash cells with 100 uL ice cold PBS. • 12. Remove PBS by flicking into sink and patting on paper towels. • 13. Lyse cells in 50 μl ice cold 1× Complete Lysis Buffer plus phosphatase and protease inhibitors (all provided with kit) (10 mL Tris Lysis Buffer+200 μl Protease inhibitor solution+100 μl Phosphatase inhibitor I+100 μl Phosphatase inhibitor II). • 14. Incubate with shaking at 4° C. for 30 minutes. • 15. Dilute lysates before transferring to capture plate with 100 μl Complete p38 Lysate • Dilution Buffer (provided with kit) (10 mL of Diluent 20±200 μl Protease inhibitor solution+100 μl Phosphatase inhibitor I+100 μl Phosphatase inhibitor II). • 16. Transfer 50 μl of diluted lysates to capture plate, cover with adhesive cover, and incubate at 4° C. over night with shaking. Day 3: • 1. Wash plates 4× with 200 μl 1× wash buffer (10× provided with kit). • 2. […] Incubate at room temperature with shaking for 1 hour. • 4. Wash 4× with 200 μl 1× Wash Buffer. • 5. […] Read on Sector Imager. TAK1 Biochemical Assay
(ELISA stands for enzyme-linked immunosorbent assay.)

Take `CC(=O)N1CCC(n2cc(-c3cnc(N)c4oc(-c5c6ccncc6nn5C)cc34)cn2)CC1` [Example 364, 1-(4-{4-[7-amino-2-(2-methyl-2H-pyrazolo[3,4-c]pyridin-3-yl)furo[2,3-c]pyridin-4-yl]-1H-pyrazol-1-yl}piperidin-1-yl)ethanone trifluoroacetic Acid Salt]: the results for the IC50 on TAK1-TAB1 fusion protein and in the test on pJNK in HCT-116 cells were 100 to 1000 nM and 1000 to 10000 nM, respectively.

For `N#Cc1cc(-c2cc3c(-c4cnn([C@H]5CC[C@H](O)CC5)c4)cnc(N)c3o2)c2snnc2c1` [Example 370, 7-{7-amino-4-[1-(trans-4-hydroxycyclohexyl)-1H-pyrazol-4-yl]furo[2,3-c]pyridin-2-yl}-1,2,3-benzothiadiazole-5-carbonitrile], the concentration for half-maximal inhibition (IC50) (in general, the midpoint of a concentration-inhibition curve) at TAK1-TAB1 fusion protein was 100 to 1000 nM; with pJNK in HCT-116 cells it was below 100 nM.

For `CC(C)CNC(=O)N1CCC(n2cc(-c3cnc(N)c4oc(-c5cccc6cnsc56)cc34)cn2)CC1` [Example 338, 4-[4-(7-amino-2-benzo[d]isothiazol-7-yl-furo[2,3-c]pyridin-4-yl)-pyrazol-1-yl]-piperidine-1-carboxylic acid isobutyl-amide], the half-inhibitory concentration (IC50) on TAK1-TAB1 fusion protein and with pJNK in HCT-116 cells was 100 to 1000 nM in each case.

Regarding `CC(=O)N1CCC(n2cc(-c3cnc(N)c4oc(-c5c(F)ccc6cnsc56)cc34)cn2)CC1` [Example 239, 1-(4-{4-[7-amino-2-(6-fluoro-1,2-benzothiazol-7-yl)furo[2,3-c]pyridin-4-yl]-1H-pyrazol-1-yl}piperidin-1-yl)ethanone diformate salt], the IC50 on TAK1-TAB1 fusion protein and in the test with pJNK in HCT-116 cells was 100 to 1000 nM each time.

As to `Nc1ncc(-c2cnn([C@@H]3C[C@H]4CC[C@@H](C3)N4C=O)c2)c2cc(-c3csc4cnccc34)oc12` [Example 324, (3-exo)-3-{4-[7-amino-2-(thieno[2,3-c]pyridin-3-yl)furo[2,3-c]pyridin-4-yl]-1H-pyrazol-1-yl}-8-azabicyclo[3.2.1]octane-8-carbaldehyde], the IC50 on TAK1-TAB1 fusion protein and in the test on pJNK in HCT-116 cells was below 100 nM throughout.

On to `CC(C)(C)OC(=O)N1[C@@H]2CC[C@H]1C[C@H](n1cc(-c3cnc(N)c4oc(-c5csc6cnccc56)cc34)cn1)C2` [Example 299, tert-butyl (3-exo)-3-{4-[7-amino-2-(thieno[2,3-c]pyridin-3-yl)furo[2,3-c]pyridin-4-yl]-1H-pyrazol-1-yl}-8-azabicyclo[3.2.1]octane-8-carboxylate], for which the IC50 on TAK1-TAB1 fusion protein and in the test with pJNK in HCT-116 cells was 100 to 1000 nM each time.

As to `CNc1ncc(-c2cnn([C@H]3CC[C@H](O)CC3)c2)c2cc(-c3cccc4cnsc34)oc12` [Example 282, trans-4-{4-[2-(1,2-benzothiazol-7-yl)-7-(methylamino)furo[2,3-c]pyridin-4-yl]-1H-pyrazol-1-yl}cyclohexanol], the IC50 on TAK1-TAB1 fusion protein and with pJNK in HCT-116 cells was 100 to 1000 nM each time.

As for `Nc1ncc(-c2cnn([C@H]3CC[C@H](O)CC3)c2)c2cc(-c3csc4cnncc34)oc12` [Example 268, trans-4-{4-[7-amino-2-(thieno[2,3-d]pyridazin-3-yl)furo[2,3-c]-pyridin-4-yl]-1H-pyrazol-1-yl}cyclohexanol bistrifluoroacetate], the IC50 at TAK1-TAB1 fusion protein and in the test with pJNK in HCT-116 cells was below 100 nM throughout.

As to `CC(=O)N1CCC(n2cc(-c3cnc(N)c4oc(-c5ccc(F)c6cnsc56)cc34)cn2)CC1` [Example 223, 1-(4-{4-[7-amino-2-(4-fluoro-1,2-benzothiazol-7-yl)furo[2,3-c]pyridin-4-yl]-1H-pyrazol-1-yl}piperidin-1-yl)ethanone diformate salt], the IC50 at TAK1-TAB1 fusion protein and with pJNK in HCT-116 cells was 100 to 1000 nM in each case.

As for `COCc1nc2cccc(-c3cc4c(-c5cnn(C6CCN(C(C)=O)CC6)c5)cnc(N)c4o3)c2s1` [Example 348, 1-[4-(4-{7-amino-2-[2-(methoxymethyl)-1,3-benzothiazol-7-yl]furo[2,3-c]pyridin-4-yl}-1H-pyrazol-1-yl)piperidin-1-yl]ethanone trifluoroacetate], the IC50 at TAK1-TAB1 fusion protein and in the test on pJNK in HCT-116 cells was below 100 nM each time.

With `Nc1ncc(-c2cnn([C@@H]3C[C@H]4CC[C@@H](C3)N4)c2)c2cc(-c3cccc4cnsc34)oc12` [Example 321, 4-{1-[(3-exo)-8-azabicyclo[3.2.1]oct-3-yl]-1H-pyrazol-4-yl}-2-(1,2-benzisothiazol-7-yl)furo[2,3-c]pyridin-7-amine], the IC50 on TAK1-TAB1 fusion protein is below 100 nM; with pJNK in HCT-116 cells, 100 to 1000 nM.

For the compound `Cc1c(-c2cccc3nnsc23)oc2c(N)ncc(-c3cnn([C@H]4CC[C@H](O)CC4)c3)c12` [Example 362, trans-4-{4-[7-amino-2-(1,2,3-benzothiadiazol-7-yl)-3-methylfuro[2,3-c]pyridin-4-yl]-1H-pyrazol-1-yl}cyclohexanol], the IC50 on TAK1-TAB1 fusion protein and with pJNK in HCT-116 cells was below 100 nM each time.

On to `CCNc1nc2cccc(-c3cc4c(-c5cnn(C6CCN(C(C)=O)CC6)c5)cnc(N)c4o3)c2s1` [Example 354, 1-[4-(4-{7-amino-2-[2-(ethylamino)-1,3-benzothiazol-7-yl]furo[2,3-d]pyridin-4-yl}-1H-pyrazol-1-yl)piperidin-1-yl]ethanone trifluoroacetate], for which the IC50 at TAK1-TAB1 fusion protein and in the test on pJNK in HCT-116 cells was below 100 nM each time.

As for `Nc1ncc(-c2cnn([C@@H]3CC[C@@H](O)C3)c2)c2cc(-c3csc4cnccc34)oc12` [Example 308, (1R,3R)-3-[4-(7-amino-2-thieno[2,3-c]pyridin-3-yl-furo[2,3-c]pyridin-4-yl)-pyrazol-1-yl]-cyclopentanol], the figures for the IC50 on TAK1-TAB1 fusion protein and in the test on pJNK in HCT-116 cells were below 100 nM and 100 to 1000 nM, respectively.

As for `CC(=O)N1CCC(n2cc(-c3cnc(N)c4oc(-c5csc6cnc(Cl)cc56)cc34)cn2)CC1` [Example 246, 1-(4-{4-[7-amino-2-(5-chlorothieno[2,3-c]pyridin-3-yl)furo[2,3-c]pyridin-4-yl]-1H-pyrazol-1-yl}piperidin-1-yl)ethanone bis(trifluoroacetate)], the 50% inhibitory concentration (IC50) at TAK1-TAB1 fusion protein and in the test on pJNK in HCT-116 cells was 100 to 1000 nM throughout.

For the compound `CN1[C@@H]2CC[C@H]1C[C@H](n1cc(-c3cnc(N)c4oc(-c5csc6cnccc56)cc34)cn1)C2` [Example 328, 4-{1-[(3-exo)-8-methyl-8-azabicyclo[3.2.1]oct-3-yl]-1H-pyrazol-4-yl}-2-(thieno[2,3-c]pyridin-3-yl)furo[2,3-c]pyridin-7-amine], the half-maximal inhibitory concentration (IC50) is below 100 nM at TAK1-TAB1 fusion protein and 100 to 1000 nM with pJNK in HCT-116 cells.

Turning to `CNc1nc2cccc(-c3cc4c(-c5cnn([C@H]6CC[C@H](O)CC6)c5)cnc(N)c4o3)c2s1` [Example 351, trans-4-(4-{7-amino-2-[2-(methylamino)-1,3-benzothiazol-7-yl]furo[2,3-c]pyridin-4-yl}-1H-pyrazol-1-yl)cyclohexanol Trifluoroacetate (Salt)], the IC50 at TAK1-TAB1 fusion protein and with pJNK in HCT-116 cells was below 100 nM throughout.
